The record followed here is PubChem BioAssay (NCI).

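Protocol summary: plate cells (96-well), add compound at 5 concentrations, incubate 48 h, interpolate endpoints linearly. GI50: concentration for 50% inhibition of growth. The concentration for full growth arrest is given as TGI.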

Among the test systems are NCI-H226 lung; RPMI-8226 leukemia; A549 NSCLC; SR leukemia; COLO 205 colon; T-47D breast; SK-MEL-28 melanoma; K-562 leukemia; A498 renal; U251 CNS.
Holding throughout (assay): NCI-60 cell line screen, 48 h

Take `O=C(c1cccs1)c1c(C(F)(F)F)n([O-])c2cc(F)c(F)cc2[n+]1=O`: the GI50 in the test on NCI-H226 lung is 3.62 µM; in the test on RPMI-8226 leukemia, 0.501 µM; in the test on A549 NSCLC it was 6.16 µM; in the test with SR leukemia, 0.096 µM; in the test on COLO 205 colon it was 3.15 µM; with T-47D breast it was 2.25 µM. For the same compound, the GI50 in the test with SK-MEL-28 melanoma is 1.91 µM; in the test on K-562 leukemia it was 0.71 µM; in the test on A498 renal, 1.46 µM; in the test with U251 CNS, 1.02 µM. In addition, the TGI in the test on NCI-H226 lung turned out to be 7.47 µM; in the test with RPMI-8226 leukemia, 3.51 µM; in the test with A549 NSCLC, 12.5 µM; in the test on SR leukemia it was 0.48 µM; in the test on COLO 205 colon, 5.9 µM; in the test on T-47D breast it was 5.96 µM. Further, the TGI in the test with SK-MEL-28 melanoma came to 3.7 µM; in the test on K-562 leukemia, 2.44 µM; in the test on A498 renal it was 3.79 µM; in the test with U251 CNS, 2.72 µM.

For the compound `N#Cc1ccc(-n2cnc(NC(=O)[C@H]3CCN(C#N)C3)c2)cc1`, the GI50 was 2.51 µM in the test on NCI-H226 lung; 1.71 µM with RPMI-8226 leukemia; 3.15 µM in the test on A549 NSCLC; 0.375 µM with SR leukemia; 0.372 µM with COLO 205 colon; 0.706 µM with T-47D breast. Further, the GI50 with SK-MEL-28 melanoma is 2.64 µM; with K-562 leukemia, 2.67 µM; with A498 renal, 2.03 µM; in the test on U251 CNS it was 3.29 µM. Moreover, the TGI in the test on NCI-H226 lung is 9.85 µM; with RPMI-8226 leukemia, 7.46 µM; in the test with A549 NSCLC it was more than 100 µM; in the test with SR leukemia it was more than 100 µM; with COLO 205 colon it was 1.93 µM; in the test on T-47D breast it was 6.86 µM. Further, the TGI in the test with SK-MEL-28 melanoma was more than 100 µM; in the test with K-562 leukemia, more than 100 µM; with A498 renal, 4.76 µM; with U251 CNS, more than 56.7 µM.

On to `NC(=O)c1c(OCc2c(F)cc(Br)cc2F)nsc1NC(=O)NCCCCN1CCCC1`, for which the GI50 in the test with NCI-H226 lung is 0.453 µM; with RPMI-8226 leukemia it was 2.4 µM; in the test with A549 NSCLC it was 2.97 µM; in the test on SR leukemia, 1.74 µM; in the test on COLO 205 colon, 1.9 µM; with T-47D breast, 1.18 µM. Further, the GI50 with SK-MEL-28 melanoma is 1.71 µM; in the test with K-562 leukemia, 1.44 µM; with A498 renal, 0.086 µM; with U251 CNS, 1.71 µM. The TGI is more than 10 µM in the test on NCI-H226 lung; 6 µM with RPMI-8226 leukemia; more than 10 µM in the test on A549 NSCLC; 4.37 µM with SR leukemia; 4.05 µM in the test on COLO 205 colon; more than 10 µM in the test on T-47D breast. Also, the TGI in the test on SK-MEL-28 melanoma was found to be 3.35 µM; in the test with K-562 leukemia, 5.91 µM; in the test with A498 renal, 0.91 µM; in the test with U251 CNS, 5.51 µM.

As to `Nc1cc(C(F)F)c(-c2nc(N3[C@@H]4CC[C@H]3COC4)nc(N3[C@@H]4CC[C@H]3COC4)n2)cn1`, the GI50 was 0.244 µM in the test with NCI-H226 lung; 0.237 µM in the test on RPMI-8226 leukemia; 0.341 µM with A549 NSCLC; 0.191 µM in the test on SR leukemia; 0.329 µM with COLO 205 colon; 0.0533 µM in the test on T-47D breast. Besides, the GI50 in the test on SK-MEL-28 melanoma was 0.203 µM; in the test on K-562 leukemia it was 0.673 µM; in the test with A498 renal, 0.0367 µM; in the test on U251 CNS, 0.501 µM. Further, the TGI with NCI-H226 lung was more than 21.9 µM; with A549 NSCLC, more than 100 µM; with SR leukemia, 21 µM; in the test with COLO 205 colon, 14.5 µM; in the test on T-47D breast, 0.41 µM; in the test with SK-MEL-28 melanoma, 2.92 µM. The TGI with K-562 leukemia was more than 100 µM; in the test with A498 renal, 0.232 µM; with U251 CNS it was more than 100 µM.

For `CCC(=S)N(C)O`, the TGI in the test with NCI-H226 lung is more than 100 µM; in the test on RPMI-8226 leukemia, 21.8 µM; with A549 NSCLC, more than 100 µM; with SR leukemia, 24.1 µM; in the test on COLO 205 colon it was more than 79 µM; in the test on T-47D breast, more than 100 µM. For the same compound, the TGI in the test on SK-MEL-28 melanoma was more than 100 µM; in the test with K-562 leukemia it was more than 79.8 µM; in the test on A498 renal, more than 100 µM; in the test with U251 CNS, more than 100 µM.

On to `COc1ccc2[nH]cc(/C=C3\C(=O)Nc4ccccc43)c2c1`, for which the GI50 is 7.65 µM in the test on NCI-H226 lung; 2.35 µM in the test with RPMI-8226 leukemia; 4.68 µM in the test with A549 NSCLC; 1.96 µM with SR leukemia; 3.86 µM in the test on COLO 205 colon; 4.91 µM in the test with T-47D breast. For the same compound, the GI50 was 10.5 µM in the test on SK-MEL-28 melanoma, 2.28 µM in the test with K-562 leukemia, 3.15 µM in the test on A498 renal and 6.12 µM with U251 CNS. Also, the TGI with NCI-H226 lung was determined as 35.9 µM; in the test on RPMI-8226 leukemia, 6.84 µM; in the test on A549 NSCLC it was 24.4 µM; with SR leukemia, 5.2 µM; with COLO 205 colon it was 23.2 µM; with T-47D breast it was 30.3 µM. The TGI was found to be 42 µM with SK-MEL-28 melanoma, 9.83 µM with K-562 leukemia, 15.1 µM in the test on A498 renal and 21.2 µM in the test with U251 CNS.

As for `O=C(O)[C@@H]1C[C@@H](O)CN1`, the TGI in the test on NCI-H226 lung, in the test on RPMI-8226 leukemia, in the test with A549 NSCLC, in the test with SR leukemia, with COLO 205 colon and with T-47D breast was more than 100 µM in each case. Further, the TGI in the test with SK-MEL-28 melanoma, with K-562 leukemia, in the test on A498 renal and in the test on U251 CNS was more than 100 µM in each case.

With `CCOC(=O)C(=Cc1ccc(Br)cc1)C(=O)OCC`, the GI50 in the test with NCI-H226 lung was 1.96 µM; in the test on RPMI-8226 leukemia it was 0.27 µM; with A549 NSCLC, 2.28 µM; in the test with SR leukemia it was 2.41 µM; in the test with COLO 205 colon it was 1.89 µM; with T-47D breast, 2.12 µM. Also, the GI50 in the test on SK-MEL-28 melanoma is 1.89 µM; with K-562 leukemia, 2.49 µM; with A498 renal, 2.18 µM; in the test on U251 CNS it was 1.43 µM. Moreover, the TGI with NCI-H226 lung is 5.5 µM; in the test with RPMI-8226 leukemia, 1.32 µM; in the test on A549 NSCLC, 5.83 µM; in the test with SR leukemia, more than 23.1 µM; in the test on COLO 205 colon, 3.94 µM; in the test with T-47D breast, 6 µM. The TGI in the test on SK-MEL-28 melanoma is 3.62 µM; in the test with K-562 leukemia, more than 100 µM; with A498 renal, 5.14 µM; with U251 CNS it was 2.98 µM.
